In PubChem BioAssay (NCI):
Values joined by “and” are separate entries in the source; they are usually repeats but may differ in a detail not shown here. Equal values may be shown once.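 Test compounds were applied to cells in 96-well plates for 48 hours at 5 doses. GI50 marks 50% less growth. Definition used: TGI = concentration required for complete inhibition of growth.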

Tests used:
Experiment in all cases: NCI tumour cell line growth inhibition, 48 h
CAKI-1 renal = test system: CAKI-1 renal
DLD-1 colon = test system: DLD-1 colon
M19-MEL melanoma = test system: M19-MEL melanoma
XF 498 CNS = test system: XF 498 CNS
LXFL 529 NSCLC = test system: LXFL 529 NSCLC
HOP-18 NSCLC = test system: HOP-18 NSCLC
SNB-78 CNS = test system: SNB-78 CNS
HOP-92 NSCLC = test system: HOP-92 NSCLC
DMS 114 small cell lung = test system: DMS 114 small cell lung
SNB-75 CNS = test system: SNB-75 CNS
OVCAR-3 ovarian = test system: OVCAR-3 ovarian
KM20L2 colon = test system: KM20L2 colon
T-47D breast = test system: T-47D breast
DMS 273 small cell lung = test system: DMS 273 small cell lung
MDA-MB-435 = test system: MDA-MB-435
RXF-631 renal = test system: RXF-631 renal

Compound	TGI (CAKI-1 renal) [µM]	TGI (DLD-1 colon) [µM]	TGI (M19-MEL melanoma) [µM]	TGI (XF 498 CNS) [µM]	TGI (LXFL 529 NSCLC) [µM]	TGI (HOP-18 NSCLC) [µM]	TGI (SNB-78 CNS) [µM]	TGI (HOP-92 NSCLC)	TGI (DMS 114 small cell lung) [µM]	TGI (SNB-75 CNS) [µM]	GI50 (OVCAR-3 ovarian) [µM]	TGI (OVCAR-3 ovarian)	TGI (KM20L2 colon) [µM]	GI50 (HOP-92 NSCLC) [µM]	GI50 (T-47D breast) [µM]	TGI (T-47D breast)	TGI (DMS 273 small cell lung) [µM]	GI50 (MDA-MB-435) [µM]	TGI (MDA-MB-435)	TGI (RXF-631 renal) [µM]
CCOC(=O)/C(=C/c1ccco1)P(=O)(OCC)OCC	> 100	> 100	> 100	> 100	> 100	> 100	> 100	> 100 µM	> 100	> 100	–	–	–	–	–	–	–	–	–	–
COCC(=O)OC1CCn2c1nc1c2C(=O)C(C)=C(NC(C)=O)C1=O (stereo unspecified)	32.3	28.8	25.4	11.4	11.5	57.2	4.4	2.95 µM and 4.62 µM	5.48	14.8	1.9	5.23 µM and 4.82 µM	44.3	1.38	1.03	5.51 µM and 2.68 µM	33.6	2.17	3.69 µM and 3.42 µM	–
Cc1cc(C)nc(NS(=O)(=O)c2ccc(Nc3c4ccccc4nc4c(C(=O)N5CCN(CCOS(C)(=O)=O)CC5)ccc(Cl)c34)cc2)n1	> 100	> 100	> 100	> 100	–	–	> 100	> 100 µM	> 100	> 100	–	> 100 µM	> 100	–	–	–	> 100	–	–	> 100
CCOC(=O)C(NC(=O)c1ccc(N=NN(C)C)cc1)C(C)C (stereo unspecified)	> 100	> 100	–	–	> 100	–	–	–	> 100	> 100	–	> 100 µM	–	–	–	–	> 100	–	–	–
N#CC(C#N)=Cc1cccc(Oc2ccccc2)c1	50.4	51.9	> 79	46.6	41	42.4	99.9	–	73.2	> 94.9	–	72 µM	> 80.9	–	–	–	36.1	–	–	–
NC(CCSCC(F)F)C(=O)O (stereo unspecified)	> 100	> 100	> 100	> 100	> 100	> 100	> 100	> 100 µM	> 100	> 100	–	> 100 µM	> 100	–	–	–	> 100	–	–	> 100
O=c1cc(-c2ccccc2F)[nH]c2cc3c(cc12)OCO3	–	2.82	> 100	91.7	16.5	61.1	> 100	> 100 µM	51.7	17.3	–	0.779 µM	–	–	–	> 100 µM	> 100	–	0.0217 µM	–
CCC1C(=O)OCc2c1cc1n(c2=O)CCC12OCCO2 (stereo unspecified)	> 100	> 100	> 100	> 100	> 100	–	> 100	> 100 µM	> 100	> 100	–	–	> 100	–	–	–	> 100	–	–	–
COC(=O)/C(=N\NC(=S)NN)C(C(=O)C(=O)Nc1ccccc1C(N)=O)c1nc2ccccc2[nH]c1=O (stereo unspecified)	> 100	–	> 100	> 100	> 100	> 100	> 100	> 100 µM	> 100	–	–	–	> 100	–	–	–	> 100	–	–	> 100
CCC1(CC)C(=O)NC(=S)N=C1N	–	> 100	> 100	> 100	> 100	> 100	–	> 100 µM	> 100	> 100	–	> 100 µM	> 100	–	–	–	> 100	–	–	> 100
O=C(c1ccccc1)[C@H]1Nc2cnccc2C2c3ccccc3CC21 (stereo partly specified)	> 73.6	> 80.7	23.8	64.4	19.7	45.6	> 79.8	37.4 µM	30.7	71.9	–	29.7 µM	57.3	–	–	–	> 63.9	–	–	> 100
Cc1ccc2c(c1)C(=O)/C(=C\c1ccc(Cl)cc1)CCS2(=O)=O	7.82	–	–	–	–	–	–	18.3 µM	–	18.4	–	19.5 µM	–	–	–	9.4 µM	–	–	23.3 µM	–
c1ccc(-c2ccc(N=NN3CCCC3)cc2)cc1	> 100	–	–	–	–	–	–	> 100 µM	–	> 100	–	> 100 µM	–	–	–	> 100 µM	–	–	> 100 µM	–
NC(=O)NC(=NCc1ccccc1)NCc1ccccc1	> 100	> 100	–	–	> 100	–	> 100	> 100 µM	–	–	–	> 100 µM	> 100	–	–	–	> 100	–	–	–
COc1cc(/C=C/C(=O)O)ccc1OS(=O)(=O)O	> 100	–	–	–	–	–	–	> 100 µM	–	> 100	–	> 100 µM	–	–	–	> 100 µM	–	–	> 100 µM	–
Clc1cccc(C2ON=C(c3ccccc3)N2C23CC4CC(CC(C4)C2)C3)c1Cl (stereo unspecified)	> 10	–	–	–	–	–	–	> 10 µM	–	> 10	–	> 10 µM	–	–	–	> 10 µM	–	–	> 10 µM	–
CC[P+](C#Cc1ccccc1)(c1ccccc1)c1ccccc1	32.8	–	–	–	–	–	–	5.9 µM	–	5.31	–	4.55 µM	–	–	–	6.88 µM	–	–	2.83 µM	–
